Assay results taken from patent US20080167272A1, “Thalidomide metabolites and methods of use” (Auckland Uniservices Limited, priority 2005, published 2008).

Tests used:
[1] = test system: TNF; experiment: LPS-induced TNF production by HPBL in culture; format: cell-based, human; settings: FIG. 5
Procedure: Blood (20 ml) each from seven healthy volunteers was collected into heparinized tubes, and was overlayed on top of 10 ml of Ficoll-Paque Plus (Amersham Biosciences AB, Uppsala, Sweden) in 50 ml Falcon polypropylene conical tubes (Becton Dickson Labware, Franklin Lakes, N.J.). The tubes were centrifuged for 30 min at 300×g and 4° C., and the layer of cells was removed and re-suspended at 1×10^6 cells/ml in A-MEM medium supplemented with foetal bovine serum (Moregate BioTech Ltd, Hamilton, New Zealand) (10% v/v), streptomycin sulphate (100 μg/ml) and penicillin-G (100 units/ml) (Sigma, St Louis, Mo., USA). Cells were added to a 24-well plate (Nunc, Kamstrup, Roskilde, Denmark) with LPS (Escherichia coli serotype 055:B5; Sigma, St. Louis, Mo., USA) plus thalidomide or CG at 0.04, 0.2, 1, 5, 25 & 100 μg/ml; or PG or PiG at 1, 5 & 25 μg/ml in a final volume of 1 ml. Wells containing cells only and cells plus LPS only were included as controls. After 12 hours of incubation, supernatants were removed and assayed immediately for TNF as described in section 4.
TNF was assayed using a commercially available ELISA kit (OpEIA human or murine TNF kit, PharMingen, San Diego, Calif., USA), according to the manufacturer's instructions. Briefly, samples (100 μl/well) in duplicate together with a serial dilution of TNF (31.25-2000 pg/ml) for the standard curve, were added to flat-bottom 96-well plates pre-coated with immobilised monoclonal anti-TNF antibody and incubated at room temperature for 2 h. The wells were then washed, biotinylated polyclonal antibody to TNF was added, followed by peroxidase-labelled streptavidin, and incubated at room temperature for 1 h. The wells were washed again, and the substrate, tetramethylbenzidine and hydrogen peroxide was added and after 10 min the reaction was stopped with 2 N sulphuric acid. The absorbance at 450 nm was determined using a microtitre plate reader.

[2] = test system: ECV304 cells; experiment: Inhibition of tube formation of ECV304 cells in Matrigel; format: cell-based, human
Procedure: Each well in a 24-well plate was coated with 300 μl of Matrigel (Becton Dickinson, San Jose, Calif., USA) which was allowed to solidified at 37° C. for 1 h. […] After 15-18 h of incubation at 37° C. at 5% CO2, the culture supernatant was aspirated. The cells were fixed and stained using Diff-Quick staining kit (Dade AG, Dudingen, Switzerland) according to the manufacturer's instructions. After removal of the staining solution the stained cells in each well were photographed along with a measuring ruler placed at the bottom edge of the photographing field (Olympus Camedia C-5050 professional digital camera, Olympus Optical, Tokyo, Japan). The total length of the tubes formed in the photographs was measured and divided by the area of the field (mm/mm^2).

[3] = test system: Colon 38 tumours; experiment: Tumour growth delay, Colon 38 tumours in mice, combination with DMXAA; format: in vivo
Source text: Mice (C57B1/6 bred at the Animal Resources Unit, University of Auckland, New Zealand) were implanted with Colon 38 tumours, obtained originally from the Mason Research Institute (Auckland, New Zewaland) by transferring 1 mm^3 pieces of the tumour into a subcutaneous opening in the left flank of anaesthetized mice. The mice with tumours were used for growth delay experiments when tumours had reached approximately 3-5 mm in diameter. Mice were divided into 10 groups, an untreated control group, a group treated intraperitoneally (i.p.) with DMXAA (5,6-dimethylxanthenone-4-acetic acid, synthesized at the Auckland Cancer Society Research Centre—ACSRC (Auckland, New Zealand) at 25 mg/kg only, and 8 groups treated with DMXAA together with the hydrolytic thalidomide metabolites PG, PiG, CG also synthesized at the ACSRC as previously described (Lu et al, 2003), or thalidomide at 100 mg/kg, or together with CG or thalidomide at 20 mg/kg or 4 mg/kg. DMXAA was dissolved in saline at 2.5 mg/ml and injected i.p. into mice in a volume of 10 μl/g body weight. Thalidomide, PG, PiG and CG were dissolved in dimethylsulphoxide at 40, 8 or 1.6 mg/ml (for dosages of 100, 20, 4 mg/kg respectively) and injected i.p. in a volume of 2.5 μl/g body weight. Tumours were measured 2-3 times weekly after treatment and tumour volumes were calculated as 0.52×a^2×b, where a and b are the minor and major axes of the tumour. The arithmetic means and standard errors were calculated for each point, counting cured animals as having zero tumour volume, and expressed as fractions of the pre-treatment volume. Growth delay was determined as the difference in the number of days required for the tumour to reach four times the pre-treatment volume.

O=C1CCC(NC(=O)c2ccccc2C(=O)O)C(=O)N1 (stereo not drawn) [CG, 2-{[(2,6-Dioxo-3-piperidinyl)amino]carbonyl}benzoic acid]
effect on LPS-induced TNF production ([1]; HPBL, LPS 100 pg/ml, 12 h, all concentrations tested (PG, PiG: 1, 5, 25 μg/ml)): significantly decreased LPS-induced TNF levels in a dose-dependent manner | TNF inhibition in vitro compared with thalidomide ([1]; human cell system): as active as thalidomide | inhibition of tube formation ([2]; 250 μg/ml, FIGS. 6 & 7): Near complete inhibition | inhibition at 2 µg/mL ([2]; Homo sapiens, ECV-304, lowest concentration tested, 2 μg/ml, FIG. 7): 38 to 41% | angiogenesis inhibition in vitro compared with thalidomide ([2]; human cell system, FIGS. 6 & 7): as active as thalidomide | potentiation of DMXAA-induced anti-tumour effects ([3]; 4 mg/kg co-administered with DMXAA 25 mg/kg, FIG. 1C): neither CG nor thalidomide showed potentiation | tumour volumes at 21 days after treatment compared with DMXAA alone ([3]; 4 mg/kg co-administered with DMXAA 25 mg/kg, FIG. 2): no significant difference | potentiation of DMXAA activity against Colon 38 tumours ([3]; 20 mg/kg co-administered with DMXAA 25 mg/kg, FIG. 1B): more effective than thalidomide plus DMXAA or DMXAA alone | tumour volume at 21 days after treatment compared with DMXAA alone ([3]; 20 mg/kg co-administered with DMXAA 25 mg/kg, FIG. 2): significantly smaller tumour volume than those treated by DMXAA alone | tumour volumes at 21 days after treatment compared with DMXAA alone ([3]; 100 mg/kg co-administered with DMXAA 25 mg/kg, FIG. 2): significantly smaller tumour volumes than those treated by DMXAA alone | inhibition of tumour growth compared with DMXAA alone ([3]; 100 mg/kg i.p. co-administered with DMXAA 25 mg/kg, FIG. 1A): greater inhibition of tumour growth than that of DMXAA alone | tumour growth inhibition compared with thalidomide ([3]; doses at or above 20 mg/kg, combined with DMXAA, FIGS. 1 & 2): greater tumour growth inhibition than thalidomide
